Test results as given in patent US11986470B2, “Methods of treating prostate cancer” (Janssen Pharmaceutica NV, priority 2016, dated 2024).
pEC50: −log10 of the molar value. Read-outs that look alike come from different tables or passages of the source.

Columns and labels:
[1] = tested on: poly(ADP)ribose (PAR) formation in C4-2B cells; conditions: 0.01-100 μM, two hours
Protocol: (§1) PAR inhibition using niraparib was assessed in 2 human prostate cancer cell lines, C4-2B and VCaP. The C4-2B cell line was grown in RPMI1640±GlutaMAX™-I medium supplemented with 10% FBS and NEAA and split every 3-4 days. VCaP cells were grown in DMEM+GlutaMAX™-I medium with FBS and NEAA and subcultured every 7 days.
(§2) Cells were harvested by brief trypsinization and each line was seeded into 6-well plates in 1 mL of medium at an appropriate density. An extra 500 μL of complete medium was added, for a total volume per well of 1.5 mL. Cells were rested overnight in the plates at 37° C. in a humidified 5% CO2 incubator. The next day, medium was removed from plates and cells were washed using 1 mL serum free medium (RPMI or DMEM respectively). Treatment was initiated by addition of 1 mL of niraparib (final concentrations 100, 10, 1, 0.1, 0.01 and 0 μM in 0.1% DMSO) in the appropriate medium to triplicate wells. Plates were returned to the incubator for two hours.
(§3) Following treatment, extracts were prepared using reagents and procedures provided in the HT PARP in vivo Pharmacodynamic Assay II (Trevigen #4520-096-K). Medium was removed from each well and placed into separate labeled microfuge tubes, and the plates were placed on ice. The tubes were spun at 1500 rpm for 4 minutes to pellet any cells that detached from the plate during drug incubation.
(§4) Samples were assayed in duplicate.

[2] = tested on: poly(ADP)ribose (PAR) formation in VCaP cells; conditions: 0.01-100 μM, two hours
Protocol: as §1, §2, §3, §4

[3] = tested on: C4-2B human prostate tumors
Protocol: This tumor model is not believed to be BRCA-1 or BRCA-2 deficient. Vehicle was 0.5% Methyl cellulose (MethocelTM [MUT]) prepared and kept at 4° C. in the dark. All formulations were made to be dosed at a volume of 10 ml/kg body weight. NSG male mice (Jackson Laboratories) were used. Animals were habituated for one week prior to any experimental procedures being performed. […] Mice were fed an autoclaved high fat (6%) diet laboratory chow and water ad libitum. Mice were injected with LNCaP C4-2B-luc tagged cells (1×10^6 tumors cells in a 200 μl volume of Cultrex®:RPMI 1640 medium (1:1 ratio) on the right flank. […] Mice were dosed daily by gavage (p.o.) with either vehicle, or vehicle containing niraparib as indicated below at 10 ml/kg dosing volume. Start of treatment=Day 1. Mice were treated through study day 24. […] For each individual animal, body weight and tumor volume [using the formula: Tumor Volume (mm3)=(a×b^2/2); where 'a' represents the length, and 'b' the width of the tumor as determined by caliper measurements], were monitored twice weekly throughout the study. For the pre-established tumors, a time-course of tumor growth is expressed as mean±standard error of the mean (SEM).

[4] = tested on: γ-H2AX in LNCaP AR.TB cells; conditions: 18 hours
[5] = tested on: γ-H2AX in 22RV1 cells; conditions: 22RV1 (printed 22AV1), 18 hours
[6] = tested on: LNCaP AR.TB cells; test: cells; conditions: Homo sapiens, 168 h
Protocol: (§5) In vitro cytotoxicity of niraparib was assessed in 5 human prostate cancer cell lines: C4-2B, LNCaP, LNCaP AR.TB, VCaP, and 22Rv1. C4-2B, LNCaP, LNCaP AR.TB, and 22Rv1 cell lines were grown in RPMI1640±GlutaMAX™-I medium (Life Technologies #61870-036) supplemented with 10% heat-inactivated fetal bovine serum (FBS) (Life Technologies 416140-071) and non-essential amino acids (NEAA) (Life Technologies #11140-050); and VCaP cells were grown in DMEM+GlutaMAX™-I medium (Life Technologies ##10569-010) with 10% FBS and NEAA. VCaP cells were subcultured every 7 days; other lines were split every 3-4 days. Cell growth kinetics of each cell line were determined by seeding cells at several densities and monitoring growth at intervals up to 7 days. Growth was determined using the Promega Cell TiterGlo reagent (#G7571) to measure cellular ATP by means of a chemiluminescent luciferin-luciferase reaction. […] For niraparib cytotoxicity experiments, cells were harvested by brief trypsinization and each line was seeded to the inner 60 wells of 96-well plates in 100 μL of medium at an appropriate density for a 7-day treatment. The outer wells of each plate were filled with Dulbecco's phosphate buffered saline (DPBS; Life Technologies #14190-144) to reduce evaporation from test wells. Cells were rested overnight in the plates at 37° C. in a humidified 5% CO2 incubator. […] The final vehicle concentration was 0.5% DMSO. Cells were cultured for 7 days. Relative cell viability after treatment was determined using Cell TiterGlo reagent, as above. All luminescent output values were normalized to percent inhibition based on mean luminescence of the untreated control wells, and the mean percent inhibition of the vehicle control wells was subtracted from each treatment value. Percent inhibition was plotted vs log μM concentration in GraphPad Prism 7.00. Nonlinear regression and calculation of EC50 values were performed using the log(agonist) vs. response—Variable slope (four parameters) fit.

[7] = tested on: 22Rv1 cells; test: cells; conditions: Homo sapiens, 22Rv1, 168 h
Protocol: as §5

[8] = tested on: VCaP cells; test: cells; conditions: 7-day niraparib treatment
Protocol: as §5

[9] = tested on: LNCaP cells; test: cells; conditions: Homo sapiens, 168 h
Protocol: as §5

[10] = tested on: C4-2B cells; test: cells; conditions: 7-day niraparib treatment
Protocol: as §5

[11] = tested on: γ-H2AX in C4-2B cells; conditions: C4-2B (printed C4-28), 18 hours

pEC50 [6]: 5.67
pEC50 [7]: 5.45
pEC50 [8]: 5.39
pEC50 ([8]; Homo sapiens, 168 h): 5.39
pEC50 [9]: 5.46
pEC50 [10]: 5.91
pEC50 ([10]; Homo sapiens, 168 h): ~5.92
Compound: NC(=O)c1cccc2cn(-c3ccc([C@@H]4CCCNC4)cc3)nc12 [niraparib, 2-[4-[(3S)-piperidin-3-yl]phenyl]indazole-7-carboxamide]
PAR (pg PAR/mg of protein) [1]: reduced in a dose-dependent fashion
PAR (pg PAR/mg of protein) [2]: reduced in a dose-dependent fashion
tumor growth inhibition (TGI) ([3]; 25 mg/kg QD p.o., days 22 and 24, not significant): ~12%
tumor growth inhibition (TGI) ([3]; 50 mg/kg QD p.o., days 18, 22 and 24, significant): ~40%
1st Significant Concentration (minimum concentration that induces significant change in γ-H2AX) [4]: 3.13 µM
1st Significant Concentration (minimum concentration that induces significant change in γ-H2AX) [5]: 1.57 µM
1st Significant Concentration (minimum concentration that induces significant change in γ-H2AX) [11]: 1.57 µM
